The source of these data is article PMC3548978 (Analytical and bioanalytical chemistry, 2012).

As a reminder, the pIC50 is the IC50 on a negative log10 scale, so that one unit is a factor of ten.

Type in all cases: biochemical
One assay addresses p300 (Homo sapiens, UniProt Q09472). Briefly: radioisotope […]Ac-CoA HAT assay, […] probe, […] activity lost. As to conditions: read-out: % activity lost at 50 μM.
The target in another assay is Tip60 (Homo sapiens, UniProt Q92993). Briefly: CPM fluorescent HAT assay with H4-20 and Ac-CoA.
The target in assay [1] is T1, PCAF (Homo sapiens, UniProt Q92831). Briefly: CPM fluorescent HAT assay with H3-20 and Ac-CoA.
The target in assay [2] is T1, PCAF. Briefly: radioisotope […]Ac-CoA HAT assay, […] probe.

pIC50: −log10 of the molar value.

Sequence of p300 (Q09472 2-2414): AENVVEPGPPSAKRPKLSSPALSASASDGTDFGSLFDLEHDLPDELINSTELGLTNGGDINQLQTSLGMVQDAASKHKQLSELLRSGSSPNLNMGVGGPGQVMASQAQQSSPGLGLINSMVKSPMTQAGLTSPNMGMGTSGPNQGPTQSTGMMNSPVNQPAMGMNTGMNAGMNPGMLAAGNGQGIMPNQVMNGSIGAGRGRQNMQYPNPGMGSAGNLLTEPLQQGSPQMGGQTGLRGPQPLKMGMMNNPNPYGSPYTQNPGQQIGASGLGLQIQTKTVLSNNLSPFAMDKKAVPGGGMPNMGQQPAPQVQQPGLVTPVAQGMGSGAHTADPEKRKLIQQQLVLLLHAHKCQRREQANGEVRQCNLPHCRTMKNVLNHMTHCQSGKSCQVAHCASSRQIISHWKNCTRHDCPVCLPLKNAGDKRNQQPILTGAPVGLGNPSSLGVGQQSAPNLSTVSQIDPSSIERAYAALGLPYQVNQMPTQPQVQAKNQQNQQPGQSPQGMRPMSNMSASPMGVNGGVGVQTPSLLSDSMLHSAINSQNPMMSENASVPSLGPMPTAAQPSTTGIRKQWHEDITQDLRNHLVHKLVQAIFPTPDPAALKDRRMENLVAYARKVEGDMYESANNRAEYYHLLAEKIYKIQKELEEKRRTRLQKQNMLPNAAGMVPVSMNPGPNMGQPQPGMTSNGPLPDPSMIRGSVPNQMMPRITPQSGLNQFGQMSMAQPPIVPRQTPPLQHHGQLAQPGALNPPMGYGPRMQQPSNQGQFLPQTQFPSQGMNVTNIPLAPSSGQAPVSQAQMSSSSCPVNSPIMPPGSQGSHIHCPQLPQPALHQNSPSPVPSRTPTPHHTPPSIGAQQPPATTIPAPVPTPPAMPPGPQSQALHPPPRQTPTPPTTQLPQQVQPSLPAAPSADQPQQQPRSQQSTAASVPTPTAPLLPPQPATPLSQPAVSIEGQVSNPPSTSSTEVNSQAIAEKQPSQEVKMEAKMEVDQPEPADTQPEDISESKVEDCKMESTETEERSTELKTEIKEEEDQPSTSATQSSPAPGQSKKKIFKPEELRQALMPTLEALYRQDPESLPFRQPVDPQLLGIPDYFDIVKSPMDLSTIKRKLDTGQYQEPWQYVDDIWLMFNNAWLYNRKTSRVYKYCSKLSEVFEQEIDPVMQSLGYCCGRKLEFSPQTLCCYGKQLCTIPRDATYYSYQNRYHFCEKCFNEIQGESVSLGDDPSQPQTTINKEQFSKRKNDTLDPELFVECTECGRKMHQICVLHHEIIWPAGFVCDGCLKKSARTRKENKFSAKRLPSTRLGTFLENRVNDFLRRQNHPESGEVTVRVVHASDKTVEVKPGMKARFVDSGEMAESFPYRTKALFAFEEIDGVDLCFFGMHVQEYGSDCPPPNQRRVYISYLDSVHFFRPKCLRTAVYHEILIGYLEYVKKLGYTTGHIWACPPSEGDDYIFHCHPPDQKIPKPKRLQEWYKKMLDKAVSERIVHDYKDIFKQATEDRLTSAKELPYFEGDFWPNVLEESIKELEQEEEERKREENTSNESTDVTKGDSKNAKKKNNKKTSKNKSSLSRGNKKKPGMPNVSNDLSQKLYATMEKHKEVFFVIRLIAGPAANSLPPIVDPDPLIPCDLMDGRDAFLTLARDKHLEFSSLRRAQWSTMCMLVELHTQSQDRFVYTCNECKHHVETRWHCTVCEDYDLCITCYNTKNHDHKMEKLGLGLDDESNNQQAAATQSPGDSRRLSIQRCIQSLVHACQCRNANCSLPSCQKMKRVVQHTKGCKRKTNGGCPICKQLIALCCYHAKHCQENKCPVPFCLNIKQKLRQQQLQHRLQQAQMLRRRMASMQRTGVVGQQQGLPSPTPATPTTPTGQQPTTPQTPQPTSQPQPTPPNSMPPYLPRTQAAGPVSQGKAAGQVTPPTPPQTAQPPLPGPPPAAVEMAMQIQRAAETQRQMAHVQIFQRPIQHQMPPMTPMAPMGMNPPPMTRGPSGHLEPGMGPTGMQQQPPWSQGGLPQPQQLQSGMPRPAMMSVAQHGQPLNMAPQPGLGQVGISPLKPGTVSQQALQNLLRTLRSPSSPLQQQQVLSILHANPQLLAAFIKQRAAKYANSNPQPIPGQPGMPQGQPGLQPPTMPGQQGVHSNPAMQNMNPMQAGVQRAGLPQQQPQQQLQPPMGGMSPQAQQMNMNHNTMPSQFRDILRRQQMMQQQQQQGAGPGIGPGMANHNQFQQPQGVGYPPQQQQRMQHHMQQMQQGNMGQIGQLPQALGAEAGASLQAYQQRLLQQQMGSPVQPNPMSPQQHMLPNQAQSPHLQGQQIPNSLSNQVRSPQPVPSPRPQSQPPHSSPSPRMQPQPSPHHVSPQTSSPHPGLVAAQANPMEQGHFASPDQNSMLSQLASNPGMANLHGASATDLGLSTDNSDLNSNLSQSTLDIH
T1 sequence (Q92831 493-658): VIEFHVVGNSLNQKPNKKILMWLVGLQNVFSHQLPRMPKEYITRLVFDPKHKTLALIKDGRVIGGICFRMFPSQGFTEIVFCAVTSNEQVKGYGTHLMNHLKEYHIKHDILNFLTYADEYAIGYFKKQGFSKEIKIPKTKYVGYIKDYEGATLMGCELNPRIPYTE
Sequence of Tip60 (Q92993 whole entry): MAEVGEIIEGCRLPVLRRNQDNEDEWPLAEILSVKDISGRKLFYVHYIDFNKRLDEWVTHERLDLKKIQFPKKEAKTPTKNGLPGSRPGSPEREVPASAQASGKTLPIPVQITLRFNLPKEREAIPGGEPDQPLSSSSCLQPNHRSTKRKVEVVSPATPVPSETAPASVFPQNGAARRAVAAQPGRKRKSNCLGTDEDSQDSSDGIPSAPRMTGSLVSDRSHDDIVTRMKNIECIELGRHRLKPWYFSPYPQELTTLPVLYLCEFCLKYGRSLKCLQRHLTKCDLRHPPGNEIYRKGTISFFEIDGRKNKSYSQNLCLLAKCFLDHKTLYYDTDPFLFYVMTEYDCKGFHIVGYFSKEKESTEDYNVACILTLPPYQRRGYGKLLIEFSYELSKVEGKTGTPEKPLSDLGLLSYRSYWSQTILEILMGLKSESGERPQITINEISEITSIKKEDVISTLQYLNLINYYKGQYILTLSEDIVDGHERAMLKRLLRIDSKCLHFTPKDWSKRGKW

Turning to `O=C1C=CC(=O)N1c1ccc2ccc3cccc4ccc1c2c34` [P28], the inhibition at 50 µM on p300 is more than 90%.
`CC(=O)N[C@@H](CCCCNC(=O)CSCCNC(=O)CCNC(=O)[C@H](O)C(C)(C)COP(=O)(O)OP(=O)(O)OC[C@H]1O[C@@H](n2cnc3c(N)ncnc32)[C@H](O)[C@@H]1OP(=O)(O)O)C(N)=O` [Lys-CoA]: the values for the pIC50 at Tip60 and against PCAF [1] were 4.59 and 4.02, respectively.
Turning to `CCN(CC)c1ccc2c(C)c(-c3ccc(N4C(=O)C=CC4=O)cc3)c(=O)oc2c1` [CPM], on p300, the inhibition at 50 µM is more than 90%. Further, the “radioisotope [14C]Ac-CoA HAT assay, 50 μM probe” value on PCAF [2] is “Several compounds (e.g. CPM and P28) also considerably inhibited the activity of PCAF”.
